Patent US11427552B2, “Heterocyclic compounds useful in the treatment of disease” (EPIGEN BIOSCIENCES, INC., priority 2013, dated 2022)

target: T1, LPA1R (Homo sapiens, UniProt Q92633); assay: LPA1R Ca2+ flux functional assay (antagonist mode, FLIPR); format: cell-based; settings: inhibition of LPA-stimulated Ca2+ flux, LPA at EC80, LPA1R expressing cells (Millipore); read-out: LPA1 R Antagonist Activity
T1 construct: host or cells: LPA1R expressing cells (Millipore, GPCR Profiler)
Protocol: Inhibition of LPA-stimulated Ca^2+ flux was used to assess compound potency using FLIPR technology in a 96 well plate format. The assay buffer used was a modified Hanks Balanced Salt Solution (HBSS) where HBSS was supplemented to contain 20 mM HEPES and 2.5 mM Probenecid at pH7.4 (Millipore, GPCR Profiler®). LPA1R expressing cells (Millipore) were plated and prepared 24 hours prior to assay of test articles. Ca^2+ ion flux was assessed from fluorescence of a Fluo-based No Wash Ca^2+ dye. Antagonist data are generated from plates with LPA concentrations sufficient to generate 80% efficacy [EC80]. Percentage inhibition was calculated from a reduction of efficacy according to concentration of compounds of Formula I-VI. For dose responses the inhibition data was used to calculate compound IC50. The agonist assay was conducted on a FLIPR^TETRA instrument where the test compound(s), vehicle controls, and reference agonist were added to the assay plate after a fluorescence baseline was established. The agonist assay was a total of 180 seconds and was used to assess each compound's ability to activate each GPCR assayed. Upon completion of the agonist assay, the assay plate was removed from the FLIPR^TETRA and incubated at 25° C. for seven (7) minutes. After the incubation period, the assay plate was placed back in the FLIPR^TETRA and the antagonist assay was initiated. Using EC80 potency values determined during the agonist assay, all pre-incubated sample compound wells were challenged with EC80 concentration of reference agonist after establishment of a fluorescence baseline. The antagonist assay was conducted using the same assay plate that was used for the agonist assay. The antagonist assay was conducted on a FLIPR^TETRA instrument where 9 vehicle controls and EC80 concentration of reference agonist were added to appropriate wells. The antagonist assay was a total of 180 seconds and was used to assess each compound's ability to inhibit each GPCR assayed. All assay plate data were subjected to appropriate baseline corrections. After baseline corrections were applied, maximum fluorescence values were exported and data processed to calculate percentage activation (relative to Emax reference agonist and vehicle control values), percentage inhibition (relative to EC80 and vehicle control values), and additional statistical values (i.e. Z′, percentage variation between replicate data values) to assess the quality of each plate. Where assay plate data were rejected, additional experiments were conducted. All dose response curves were generated using GraphPad Prism. The curves were fit by utilizing “Sigmoidal Dose Response (Variable Slope)” equation where the bottom parameter was fixed to “0.” Where appropriate, the top parameter was fixed to “100” to better predict potency values when a full curve was not generated by the concentrations assayed.

T1 sequence (Q92633 whole entry): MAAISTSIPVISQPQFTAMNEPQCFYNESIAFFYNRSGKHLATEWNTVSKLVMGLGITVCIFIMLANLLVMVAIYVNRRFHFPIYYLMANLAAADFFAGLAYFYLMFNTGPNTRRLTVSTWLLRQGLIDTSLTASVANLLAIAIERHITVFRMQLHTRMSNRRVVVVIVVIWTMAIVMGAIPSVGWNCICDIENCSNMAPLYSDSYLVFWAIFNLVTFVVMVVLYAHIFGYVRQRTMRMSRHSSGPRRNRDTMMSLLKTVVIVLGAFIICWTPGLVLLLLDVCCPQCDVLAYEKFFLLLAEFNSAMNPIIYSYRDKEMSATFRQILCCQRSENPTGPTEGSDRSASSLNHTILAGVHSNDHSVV

Molecule | IC50 [nM]
C[C@@H](OC(=O)Nc1c(C(F)(F)F)cnn1-c1ccc(-c2ccc(C3(C(=O)O)CC3)cc2)cc1)c1ccccc1 [Example 54, (R)-1-{4′-[5-(1-Phenyl-ethoxycarbonylamino)-4-trifluoromethyl-pyrazol-1-yl]-biphenyl-4-yl}-cyclopropanecarboxylic Acid] | 300 to 1000
C[C@@H](OC(=O)Nc1ccnn1-c1ccc(-c2ccc(C3(C(=O)O)CC3)cc2)nc1)c1ccccc1 [Example 56, (R)-1-(4-{5-[5-(1-Phenyl-ethoxycarbonylamino)-pyrazol-1-yl]-pyridin-2-yl}-phenyl)-cyclopropanecarboxylic Acid] | < 300
(R)-2-(4-{4-[(R)-1-(2-Chloro-phenyl)-ethoxycarbonylamino]-3-methyl-isoxazol-5-yl}-benzoylamino)-3-phenyl-propionic Acid [Example 20] | < 300

Now from value to molecule:

IC50 [nM] | Molecule
< 300 | C[C@@H](OC(=O)Nc1c(F)cnn1-c1ccc(-c2ccc(C3(C(=O)O)CC3)cc2)cc1)c1ccccc1Cl [Example 53, (R)-1-(4′-{5-[1-(2-Chloro-phenyl)-ethoxycarbonylamino]-4-fluoro-pyrazol-1-yl}-biphenyl-4-yl)-cyclopropanecarboxylic Acid]
300 to 1000 | C[C@@H](OC(=O)Nc1c(C(F)(F)F)cnn1-c1ccc(-c2ccc(C3(C(=O)O)CC3)cc2F)cc1)c1ccccc1 [Example 55, (R)-1-{2-Fluoro-4′-[5-(1-phenyl-ethoxycarbonylamino)-4-trifluoromethyl-pyrazol-1-yl]-biphenyl-4-yl}-cyclopropanecarboxylic Acid]
> 50000 | (R)-3-(4-bromophenyl)-2-[[4-[1,5-dimethyl-4-((R)-1-phenylethoxycarbonyl-amino)pyrazol-3-yl]benzoyl]amino]propanoic acid [Example 12]
